US20230414778A1, “COMBINATION OF ANTIBODY-DRUG CONJUGATE WITH ANTI-SIRPalpha ANTIBODY” (DAIICHI SANKYO COMPANY, LIMITED, priority 2020, published 2023)

Key:
[1] = system: spleen cells (CD4-positive / CD8-positive T cells, Tcm); test: FCM analysis of spleen cells (T cell populations); type: in vivo, mouse; settings: for ratio occupied by Tcm in CD4-positive T cells compared to NCD treatment group: PBS administration (FIG. 29A); for ratio occupied by Tcm in CD8-positive T cells compared to NCD treatment group: PBS administration (FIG. 29B); for ratio occupied by CD4-positive T cells in the whole cells / ratio occupied by CD8-positive T cells in the whole cells: plus anti-SIRPα antibody (5C12) (FIG. 30C)
Description: From each of the mice used in Example 3, the spleen was excised out and spleen cells were prepared by use of PBS and seeded in a 96-well (round bottom) plate at 1×10^6 cells/well. After centrifugation was carried out at 1200 rpm for 3 minutes, the supernatant was removed. […] (manufactured by Biolegend, Inc.) diluted to 1/20 with PBS was added up to 100 μL/well. After standing at room temperature for 30 minutes, centrifugation was carried out at 1200 rpm for 3 minutes. The supernatant was removed, and primary-antibody solutions (FITC anti-CD36 antibody, PerCP anti-CD4 antibody, PE/Cy7 anti-CD8a antibody, APC anti-CD62L antibody, and APC/Cy7 anti-CD44 antibody: all manufactured by Biolegend, Inc.) were diluted with FACS buffer (1 mM EDTA, 5% FBS) and added in an amount of 50 μL/well. After standing in a dark place at 4° C. for 25 minutes, centrifugation was carried out at 1200 rpm for 3 minutes, and then the supernatant was removed. Washing was carried out twice with FACS buffer (200 μL/wells). After centrifugation, the supernatant was removed. A suspension was made with Stabilizing Fixative (manufactured by Becton, Dickinson and Company) and allowed to stand at room temperature for 10 minutes. Measurement was carried out by flow cytometry (FACS CantoII: manufactured by Becton, Dickinson and Company). Data were analyzed by use of FlowJo (manufactured by TreeStar Inc). Comparison between the NCD group and each of the drug treatment groups, or comparison among the PBS administration group, the anti-SIRPα antibody group and an anti-CD47 antibody group in each of the cell treatment groups was made in accordance with the Dunnett's multiple comparison. P value was expressed to four decimal places and the results satisfying P<0.05 (two-sided test) were determined as being significant.
Note that individual populations in the CD4-positive T cells and CD8-positive T cells were identified in the following conditions.
Tcm: central memory T cells [CD44(+) CD62L(+)]

[2] = system: cells treated with compound (A); settings: Clin. Invest. 2020: 130(1): 374-388; cited from earlier work
[3] = Clin. Invest. 2020: 130(1): 374-388; cited from earlier work
[4] = system: CT26.WT-reactive T cells in mouse spleen cells; test: ELISPOT analysis of IFNγ-producing spleen cells; type: in vivo
Description: The number of CT26.WT-reactive T cells in mouse spleen cells was determined by Murine IFNγ Single-Color Enzymatic ELISPOT Assay (manufactured by […] TECHNOLOGY LIMITED), more specifically, counting of the number of IFNγ spots produced from individual spleen cells. From each of the mice used in Example 3, the spleen was harvested and the number of spleen cells was adjusted to be 1.0×10^6 cells/mL by use of CTL test medium. CT26.WT cells were treated with 10 μg/mL mitomycin C for 2 hours and washed. Thereafter, the cells were collected, adjusted to be 1.0×10^6 cells/mL by CTL test medium, and used as an antigen. The spleen cells and the antigen were added each in an amount of 100 μL/well in a PVDF-membrane plate pre-coated with an anti-IFNγ antibody and co-cultured at 37° C. for 24 hours. Thereafter, the color was developed using the attached antibody and coloring reagent and the number of IFNγ-producing spleen cells was determined. Comparison between the NCD cell inoculation group and compound (A) or MTX treatment group was made in accordance with the Wilcoxon rank sum test. P value was expressed to four decimal places and the results satisfying P<0.05 (two-sided test) were determined as being significant.

Topoisomerase I = target: T1, Topoisomerase I (Homo sapiens, UniProt P11387); settings: Ogitani Y. et al., Clinical Cancer Research 2016; cited from earlier work
T1 sequence (P11387 1-765): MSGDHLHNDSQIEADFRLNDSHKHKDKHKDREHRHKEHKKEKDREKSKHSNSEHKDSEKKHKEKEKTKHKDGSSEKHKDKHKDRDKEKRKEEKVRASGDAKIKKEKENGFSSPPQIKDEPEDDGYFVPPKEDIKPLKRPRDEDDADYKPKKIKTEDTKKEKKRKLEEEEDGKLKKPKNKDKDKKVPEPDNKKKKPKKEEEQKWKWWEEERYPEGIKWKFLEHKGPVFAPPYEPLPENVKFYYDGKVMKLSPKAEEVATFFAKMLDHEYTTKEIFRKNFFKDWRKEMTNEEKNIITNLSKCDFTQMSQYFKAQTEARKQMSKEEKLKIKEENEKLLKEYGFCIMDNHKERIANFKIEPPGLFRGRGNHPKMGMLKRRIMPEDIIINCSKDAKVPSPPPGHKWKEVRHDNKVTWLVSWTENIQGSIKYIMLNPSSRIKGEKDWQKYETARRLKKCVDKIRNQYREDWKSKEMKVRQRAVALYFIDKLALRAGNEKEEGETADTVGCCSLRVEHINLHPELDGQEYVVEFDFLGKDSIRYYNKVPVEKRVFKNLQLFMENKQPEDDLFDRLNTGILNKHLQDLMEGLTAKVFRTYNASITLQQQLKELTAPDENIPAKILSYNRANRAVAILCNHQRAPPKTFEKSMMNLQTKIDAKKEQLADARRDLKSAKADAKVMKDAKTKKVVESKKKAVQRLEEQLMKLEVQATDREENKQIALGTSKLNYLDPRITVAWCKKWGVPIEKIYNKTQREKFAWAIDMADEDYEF

[5] = plus anti-CD47 antibody (MIAP410) (FIG. 30A)
[6] = plus anti-CD47 antibody (MIAP410) (FIG. 30B)
[7] = plus anti-SIRPα antibody (5C12) (FIG. 30A)
[8] = plus anti-SIRPα antibody (5C12) (FIG. 30B)
[9] = drug-treated CT26.WT cells inoculated, anti-SIRPα antibody (5C12) administration

| Structure (SMILES) | ratio occupied by Tcm in CD4-positive T cells compared to NCD treatment group [1] | ratio occupied by Tcm in CD8-positive T cells compared to NCD treatment group [1] | ratio occupied by Tcm in CD4-positive T cells compared to the _PBS group of the same drug [1, 5] | ratio occupied by Tcm in CD8-positive T cells compared to the _PBS group of the same drug [1, 6] | ratio occupied by Tcm in CD4-positive T cells compared to the _PBS group of the same drug [1, 7] | ratio occupied by Tcm in CD8-positive T cells compared to the _PBS group of the same drug [1, 8] | ratio occupied by CD4-positive T cells in the whole cells [1] | ratio occupied by CD8-positive T cells in the whole cells [1] | HMGB1 release from treated cells [2] | antitumor effect by vaccination of the treated cells [3] | antigen specific T cell induction compared to the MTX treatment group ([4]; ELISPOT, spleen cells) | number of IFNγ-producing spleen cells compared to NCD_PBS ([4]; drug-treated CT26.WT cells inoculated, PBS administration) | number of IFNγ-producing spleen cells compared to NCD_PBS [4, 9] | number of IFNγ-producing spleen cells compared to compound (A) PBS group [4, 9] | topoisomerase I inhibitory effect (Topoisomerase I) |
| --- | --- | --- | --- | --- | --- | --- | --- | --- | --- | --- | --- | --- | --- | --- | --- |
| CC[C@@]1(O)C(=O)OCc2c1cc1n(c2=O)Cc2c-1nc1cc(F)c(C)c3c1c2[C@@H](NC(=O)CO)CC3 [compound (A)] | significantly increased | significantly increased | significantly decreased | significantly decreased | tendency to increase | substantially the same value | significantly increased | tendency to increase | released | limited antitumor effect | tendency to further enhance | tendency to increase | significantly increased | significantly increased | TpoI inhibitor |
| O=C1c2c(O)ccc(O)c2C(=O)c2c(NCCNCCO)ccc(NCCNCCO)c21 [MTX, Mitoxantrone, reference compound] | significantly increased | significantly increased | tendency to increase | tendency to increase | tendency to increase | significantly increased | tendency to increase | significantly increased | – | – | – | – | – | – | – |
